In US7101878B1 (Agouron Pharmaceuticals, Inc., priority 1998, dated 2006):

Biological target: T1, mouse GnRH receptor (Mus musculus, UniProt Q01776)
T1 construct: expressed in transfected cells; host or cells: 293 cells
T1 sequence (Q01776 1-327): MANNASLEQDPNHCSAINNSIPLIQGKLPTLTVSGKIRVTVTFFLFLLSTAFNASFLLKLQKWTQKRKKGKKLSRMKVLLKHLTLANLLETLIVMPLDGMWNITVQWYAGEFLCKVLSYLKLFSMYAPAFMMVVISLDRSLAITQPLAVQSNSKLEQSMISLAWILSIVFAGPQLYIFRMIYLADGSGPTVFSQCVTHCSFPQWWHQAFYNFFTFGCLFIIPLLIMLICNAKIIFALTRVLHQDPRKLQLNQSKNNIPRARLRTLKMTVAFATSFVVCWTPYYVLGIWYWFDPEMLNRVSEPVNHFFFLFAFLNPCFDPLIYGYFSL
Assay: Radioligand binding, 125I-GnRH-A, 293 cells expressing mouse GnRH receptors
Details: for inhibition at 10 µM: read-out: % Inhib. @ 10 uM mGnRH; for remaining activity at 10 µM: 1 h, substrate remaining, 10 uM compound, closer to zero = closer to 100% inhibition, read-out: S%R 10 uM mGnRHR
In short: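 Bound label captured on 0.1% polyethyleneimine-treated GF/C filters, washed three times with PBS, counted. IC50 derived; identical set-up for every species.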

SMILES | inhibition at 10 µM [%] | remaining activity at 10 µM [%]
CCN(CC)CCN(CC)C(=O)c1ccc(Cc2cc3c(cc2C)C(C)(C)CCC3(C)C)o1 | 98 | 
Cc1cc2c(cc1Cc1ccc(C(=O)N(CCC3CCCN3C)Cc3ccc4ccccc4c3)o1)C(C)(C)CCC2(C)C (stereo not drawn) [Compound 598] |  | -4
Cc1cc2c(cc1Cc1ccc(C(=O)N(Cc3cccnc3)Cc3ccoc3)o1)C(C)(C)CCC2(C)C | 99 | 
CCN(Cc1ccccc1)C(=O)c1ccc(Cc2cc3c(cc2C)C(C)(C)CCC3(C)C)o1 | 86 | 
CC(=O)NCCNC(=O)c1ccc(Cc2cc3c(cc2C)C(C)(C)CCC3(C)C)o1 [Compound 476] |  | 20
Cc1cc2c(cc1Cc1ccc(C(=O)NCc3cccc(CNC(=O)C(Cc4ccccc4)c4ccccc4)c3)o1)C(C)(C)CCC2(C)C (stereo not drawn) [drawing 1571] | 47 | 
CCCCCNC(=O)c1ccc(Cc2cc3c(cc2C)C(C)(C)CCC3(C)C)o1 | 91 | 
COC(=O)C1CN(C(=O)c2ccc(Cc3cc4c(cc3C)C(C)(C)CCC4(C)C)o2)CC(C)C1=O (stereo not drawn) | 26 | 
Cc1cc2c(cc1Cc1ccc(C(=O)N(Cc3cccnc3)Cc3cccn3C)o1)C(C)(C)CCC2(C)C [drawing 1285] | 100 | 
CCOC(=O)CCNC(=O)c1ccc(Cc2cc3c(cc2C)C(C)(C)CCC3(C)C)o1 [Compound 684] |  | 2
Cc1cc2c(cc1Cc1ccc(C(=O)N(Cc3cccc(Cl)c3)Cc3cccc(Cl)c3)o1)C(C)(C)CCC2(C)C | 17 | 
COC(=O)CCCCCNC(=O)c1ccc(Cc2cc3c(cc2C)C(C)(C)CCC3(C)C)o1 [Compound 493] |  | -6
Cc1cc2c(cc1Cc1ccc(C(=O)NC(C)(CO)CO)o1)C(C)(C)CCC2(C)C [drawing 1444] | 55 | 
Cc1cc2c(cc1Cc1ccc(C(=O)N3CCC(O)CC3)o1)C(C)(C)CCC2(C)C [drawing 1510] | 77 | 
Cc1cc2c(cc1Cc1ccc(C(=O)NC3CCN(Cc4ccccc4)C3)o1)C(C)(C)CCC2(C)C (stereo not drawn) [drawing 1243] | 101 | 
CCCOCCNC(=O)c1ccc(Cc2cc3c(cc2C)C(C)(C)CCC3(C)C)o1 [Compound 669] |  | -3
Cc1cc2c(cc1Cc1ccc(C(=O)NCC3CCCC(CNc4nccc(NCC5CCCO5)n4)C3)o1)C(C)(C)CCC2(C)C (stereo not drawn) [Compound 492] |  | -7
COC(=O)C1CCCN1C(=O)c1ccc(Cc2cc3c(cc2C)C(C)(C)CCC3(C)C)o1 (stereo not drawn) [Compound 704] |  | 4
Cc1cc2c(cc1Cc1ccc(C(=O)NCCc3cccc(Oc4ccccc4)c3)o1)C(C)(C)CCC2(C)C [Compound 504] |  | 46
Cc1cc2c(cc1Cc1ccc(C(=O)N3CCC[C@H]3C(N)=O)o1)C(C)(C)CCC2(C)C | 74 | 
Cc1cc2c(cc1Cc1ccc(C(=O)N3CCc4ccccc4C3)o1)C(C)(C)CCC2(C)C [Compound 562] |  | 30
Cc1cc2c(cc1Cc1ccc(C(=O)N(Cc3cccnc3)Cc3ccccc3F)o1)C(C)(C)CCC2(C)C [drawing 1287] | 95 | 
CCOC(=O)CC(C)(NC(N)=O)NC(=O)c1ccc(Cc2cc3c(cc2C)C(C)(C)CCC3(C)C)o1 (stereo not drawn) | 25 | 

SMILES | inhibition at 10 µM [%] | remaining activity at 10 µM [%]
CCN(CC)CCCNC(=O)c1ccc(Cc2cc3c(cc2C)C(C)(C)CCC3(C)C)o1 [drawing 1244] | 100 | 
Cc1cc2c(cc1Cc1ccc(C(=O)NCCCOC(C)C)o1)C(C)(C)CCC2(C)C [Compound 560] |  | 7
Cc1cc2c(cc1Cc1ccc(C(=O)NC3CCC(C)CC3)o1)C(C)(C)CCC2(C)C (stereo not drawn) | 64 | 
Cc1cc2c(cc1Cc1ccc(C(=O)N(C)C3CCCC3)o1)C(C)(C)CCC2(C)C | 100 | 
Cc1ccc(N2CCN(C(=O)c3ccc(Cc4cc5c(cc4C)C(C)(C)CCC5(C)C)o3)CC2)cc1C | 75 | 
Cc1cc2c(cc1Cc1ccc(C(=O)N(CCN3CCCCC3)Cc3ccccc3)o1)C(C)(C)CCC2(C)C [drawing 1460] | 104 | 
Cc1cc2c(cc1Cc1ccc(C(=O)N(C)CCC3OCCO3)o1)C(C)(C)CCC2(C)C [drawing 1583] | 96 | 
Cc1cc2c(cc1Cc1ccc(C(=O)NCc3cccc(NC(=O)NC(Cc4ccccc4)c4ccccc4)c3)o1)C(C)(C)CCC2(C)C (stereo not drawn) [drawing 1570] | 42 | 
Cc1cc2c(cc1Cc1ccc(C(=O)NCCCN3CCCCC3)o1)C(C)(C)CCC2(C)C [Compound 505] |  | 7
CCN1CCCC1CNC(=O)c1ccc(Cc2cc3c(cc2C)C(C)(C)CCC3(C)C)o1 (stereo not drawn) | 96 | 
Cc1cc2c(cc1Cc1ccc(C(=O)NCC3CCN(C(N)N)CC3)o1)C(C)(C)CCC2(C)C [Compound 522] |  | 9
Cc1cc2c(cc1Cc1ccc(C(=O)N(Cc3cccnc3)Cc3cccnc3)o1)C(C)(C)CCC2(C)C [drawing 1538] | 101 | 
CCC(CC)NC(=O)c1ccc(Cc2cc3c(cc2C)C(C)(C)CCC3(C)C)o1 [Compound 666] |  | 24
Cc1cc2c(cc1Cc1ccc(C(=O)N3CCN(C(C)C)CC3)o1)C(C)(C)CCC2(C)C | 100 | 
CCOC(CNC(=O)c1ccc(Cc2cc3c(cc2C)C(C)(C)CCC3(C)C)o1)OCC | 100 | 
Cc1cc2c(cc1Cc1ccc(C(=O)NCCCc3ccccc3)o1)C(C)(C)CCC2(C)C [Compound 469] |  | -9
Cc1cc2c(cc1Cc1ccc(C(=O)N3CCN(CC(=O)N4CCCC4)CC3)o1)C(C)(C)CCC2(C)C [Compound 555] |  | 21
Cc1cc2c(cc1Cc1ccc(C(=O)N3CCN(Cc4ccc(C(C)(C)C)cc4)CC3)o1)C(C)(C)CCC2(C)C [Compound 658] |  | 35
Cc1cc2c(cc1Cc1ccc(C(=O)NCCc3cccs3)o1)C(C)(C)CCC2(C)C [Compound 471] |  | -4
Cc1cc2c(cc1Cc1ccc(C(=O)N(CCCN3CCN(C)CC3)Cc3ccc(Cl)c(Cl)c3)o1)C(C)(C)CCC2(C)C | 104 | 
Cc1cc2c(cc1Cc1ccc(C(=O)N3CC4(C)CC3CC(C)(C)C4)o1)C(C)(C)CCC2(C)C (stereo not drawn) | 100 | 
Cc1cc2c(cc1Cc1ccc(C(=O)N(CCc3ccccn3)Cc3ccccc3)o1)C(C)(C)CCC2(C)C [Compound 595] |  | 24
Cc1cc2c(cc1Cc1ccc(C(=O)N3CC(C)CC(C)C3)o1)C(C)(C)CCC2(C)C (stereo not drawn) [drawing 1446] | 90 | 

SMILES | inhibition at 10 µM [%] | remaining activity at 10 µM [%]
Cc1cc2c(cc1Cc1ccc(C(=O)N(Cc3ccccc3)C(C)C)o1)C(C)(C)CCC2(C)C [drawing 1541] | 84 | 
Cc1cc2c(cc1Cc1ccc(C(=O)N3CCC[C@@H]3C(=O)OCc3ccccc3)o1)C(C)(C)CCC2(C)C | 86 | 
Cc1cc2c(cc1Cc1ccc(C(=O)N3CCC(N4CCCC4)CC3)o1)C(C)(C)CCC2(C)C [drawing 1458] | 96 | 
Cc1cc2c(cc1Cc1ccc(C(=O)N3CCN(CCO)CC3)o1)C(C)(C)CCC2(C)C [Compound 537] |  | 32
Cc1cc2c(cc1Cc1ccc(C(=O)N(CCN(C)C)Cc3ccccc3[N+](=O)[O-])o1)C(C)(C)CCC2(C)C [Compound 590] |  | -2
CCCN(C(=O)c1ccc(Cc2cc3c(cc2C)C(C)(C)CCC3(C)C)o1)C(C)CC (stereo not drawn) | 94 | 
Cc1cc2c(cc1Cc1ccc(C(=O)NC(C)(C)C)o1)C(C)(C)CCC2(C)C [Compound 533] |  | 29
Cc1cc2c(cc1Cc1ccc(C(=O)N3CCC(C#N)(c4ccccc4)CC3)o1)C(C)(C)CCC2(C)C | 40 | 
Cc1cc2c(cc1Cc1ccc(C(=O)NCC3CC3)o1)C(C)(C)CCC2(C)C | 86 | 
Cc1cc2c(cc1Cc1ccc(C(=O)N3CCN(c4cccc(C)c4C)CC3)o1)C(C)(C)CCC2(C)C [Compound 581] |  | 43
Cc1cc2c(cc1Cc1ccc(C(=O)Nc3nc(N(C)C)nc4nc[nH]c34)o1)C(C)(C)CCC2(C)C [Compound 517] |  | 34
Cc1cc2c(cc1Cc1ccc(C(=O)N(CCCN3CCN(C)CC3)Cc3cc(C)n(-c4cccc(C(F)(F)F)c4)c3C)o1)C(C)(C)CCC2(C)C [drawing 1488] | 102 | 
Cc1cc2c(cc1Cc1ccc(C(=O)NC(C)(C)CO)o1)C(C)(C)CCC2(C)C [drawing 1585] | 90 | 
Cc1cc2c(cc1Cc1ccc(C(=O)N3CCC(N4CCCC4)CC3)o1)C(C)(C)CCC2(C)C [Compound 588] |  | 4
CCCN(Cc1ccc([N+](=O)[O-])cc1)C(=O)c1ccc(Cc2cc3c(cc2C)C(C)(C)CCC3(C)C)o1 [Compound 589] |  | 35
Cc1cc2c(cc1Cc1ccc(C(=O)N3CCCCCCC3)o1)C(C)(C)CCC2(C)C [Compound 563] |  | 13
Cc1cc2c(cc1Cc1ccc(C(=O)N(Cc3ccc(O)cc3)C3CCN(Cc4ccccc4)C3)o1)C(C)(C)CCC2(C)C (stereo not drawn) | 82 | 
Cc1cc2c(cc1Cc1ccc(C(=O)N3CCC(C(=O)c4ccccc4)CC3)o1)C(C)(C)CCC2(C)C [drawing 1495] | 59 | 
Cc1cc2c(cc1Cc1ccc(C(=O)N3CCCCC3CCN3CCCCC3)o1)C(C)(C)CCC2(C)C (stereo not drawn) | 103 | 
Cc1cc2c(cc1Cc1ccc(C(=O)N3Cc4ccccc4CC3C(=O)NCC(c3ccccc3)c3ccccc3)o1)C(C)(C)CCC2(C)C (stereo not drawn) | 9 | 
Cc1cc2c(cc1Cc1ccc(C(=O)N3CCC(N4CCCCC4)CC3)o1)C(C)(C)CCC2(C)C | 92 | 
Cc1cc2c(cc1Cc1ccc(C(=O)N(Cc3cccnc3)CC3CC=CCC3)o1)C(C)(C)CCC2(C)C (stereo not drawn) [Compound 691] |  | 7
C#CCN(CCC)CCN1CCN(C(=O)c2ccc(Cc3cc4c(cc3C)C(C)(C)CCC4(C)C)o2)CC1 | 101 | 
